{
  "source": "patent US20090197279A1",
  "about": "“MICROTUBULE SYNTHESIS AS A BIOMARKER” (KINEMED, INC., priority 2005, published 2009)",
  "key": {"[1]": {"system": "total hippocampal proteins", "assay": "Fractional synthesis of total hippocampal proteins", "type": "in vivo, mouse", "conditions": "coadministration of 0.66 pmol Rp-cAMP with glutamate", "experimental": "FIG. 7 depicts the effects of ICV glutamate on the relative amounts of MT subpopulations and on total protein synthesis in murine hippocampus. (A, B) Tubulin abundances are measured by Western blot analysis for α-tubulin at 8 hour (A) and 24 hours (B). Subpopulations were total extract (total), free tubulin dimers, tau-associated MTs, tau-nonassociated (MAP2/STOP) MTs and cold stable (CS) MTs. Mock and glutamate infused ICVC mice are shown (cf. FIGS. 6A and B). […] (C) Fractional synthesis of total hippocampal proteins. Glutamate increased protein synthesis versus mock-treated animals (*p<0.01); this effect was blocked by coadministration with 0.66 pmol of Rp-cAMP (**p<0.02).\nThis hypothesis had not previously been tested in the living brain, however. To test this hypothesis, we used the methods of the invention disclosed herein. Mice were infused with 6 μl water containing 0.48 nmol glutamate (80 μM in the infusate), or glutamate plus 0.66 pmol Rp-cAMP (110 nM in the infusate). Label incorporation into hippocampal tubulin dimers and into microtubule polymers was then quantified after administration of ^2H2O for 8 hours or 24 hours (FIGS. 7A and 7B). […] These findings further strengthen the previously reported correlation between hippocampus glutamate NMDA receptor-dependent learning (long-term potentiation) and protein synthesis (Kandel, E. R. The molecular biology of memory storage: a dialogue between genes and synapses. Science 294, 1030-1038 (2001)). By the same criterion, the glutamate-induced program of changes in hippocampal microtubule dynamics shown in FIGS. 6 and 7 also alters hippocampal total protein synthesis in vivo (data not show), further supporting the capacity of the invention disclosed herein to generate a biochemical record of basic neuroanatomic connectivity in the brain and thereby to reveal the dynamics of synaptogenesis in vivo."}, "[2]": {"system": "hippocampal tubulin dimers and tau-associated, tau-nonassociated (MAP2/STOP) and cold-stable microtubules", "assay": "2H label incorporation into hippocampal tubulin dimers and microtubule fractions after ICVC infusion (2H2O labeling, GC/MS)", "type": "in vivo, mouse", "experimental": "In (A) and (B), mice received ICVC infusions of 6 μl water alone or containing 0.48 nmol glutamate (80 μM in the infusate), or glutamate plus 0.66 pmol Rp-cAMP (110 nM in the infusate). Animals were then labeled with ^2H2O for 8 hours (A) or 24 hours (B). At sacrifice, the hippocampal post-nuclear supernatant was fractionated as show in FIG. 5A; a separate aliquot was used for isolation of cold stable (CS) MTs (FIG. 5D). Glutamate injection stimulated label incorporation into new MAP2/STOP-MTs at 8 and 24 hours, and CS MTs at 24 hours; both were blocked by Rp-cAMP. In order to correct the effects of pharmacologic intervention on MT dynamics for the confounding changes in tubulin synthesis, the numbers above each bar express ^2H label incorporation into MT as a percentage of ^2H labeling in the corresponding tubulin dimer fractions. (C) Dose dependence of glutamate effects. ^2H2O labeling was initiated at time zero, 6 μl ICVC infusions with the indicated concentrations of glutamate were performed at 24 hours, and labeling was continued until sacrifice at 48 hours (24 hours post glutamate infusion). Hippocampal MTs were fractionated into tau-associated, MAP2-associated, and non-associated (STOP-associated) MT fractions, as in FIG. 5A. In all experiments, bars represent % new tubulin (mean±SD, n=3).\nTubulin was purified using minor modifications of protocols described previously (Fanara, P., Oback, B., Ashman, K., Podtelejnikov, A., Brandt, R. Identification of MINUS, a small polypeptide that functions as a microtubule nucleation suppressor. EMBO J. 18, 565-577 (1999); Fanara, P. et al. In vivo measurement of microtubule dynamics using stable isotope labeling with heavy water. Effect of taxanes. J. Biol. Chem. 279, 49940-49947 (2004). Briefly, cultured neurons were gently scraped off culture plates, washed in phosphate-buffered saline (PBS), and homogenized in microtubule-stabilizing buffer. For purification ex vivo, mice were anesthetized with isoflurane and euthanized by cervical dislocation. Brains were rapidly removed and washed in microtubule-stabilizing buffer (MSB); hippocampi were dissected and gently homogenized in MSB. To separate cytosolic tubulin dimers from microtubule polymers, post-nuclear supernatants were centrifuged at 190,000×g at 20° C. for 35 min. The supernatant or non-microtubule fraction (containing the soluble dimeric tubulin) was separated from the pellet or microtubule fraction (containing polymeric tubulin), quick-frozen and stored at −20° C. Microtubule pellets were further fractionated by sequential immunoaffinity chromatography steps (FIG. 3). In order to isolate tau-associated microtubules, TAU5 antibody was covalently coupled to epoxy-activated Sepharose beads (Amersham Pharmacia Biotech) at a concentration of 0.25 mg/ml. Approximately 0.2 mg of the microtubule pellet was incubated with TAU-5 beads in 0.5 ml MSB for 1 hour at room temperature. Unbound material was removed, the beads were washed three times in 0.5 ml of MSB, and bound material was eluted in 0.5 ml MSB containing 1M NaCl. In some experiments, MAP2-associated microtubules were captured from the TAU5-unbound material by immunoaffinity chromatography on epoxy-activated Sepharose beads coupled to MAP2 antibody (0.5 mg antibody per ml beads) using the same protocol. The relative abundance of tubulin in each preparation (Tubulin dimers and TAU5-bound, MAP2-bound, and unbound microtubule fractions) was quantified by Western blot, and tubulin from these fractions was further purified by ion exchange and size exclusion chromatography, as previously described (Fanara, P. et al. In vivo measurement of microtubule dynamics using stable isotope labeling with heavy water. Effect of taxanes. J. Biol. Chem. 279, 49940-49947 (2004)). […]"}, "[3]": {"assay": "Toxicity of maintained body water 2H2O enrichment", "type": "in vivo", "conditions": "1-10% of total body water labeled, maintained for weeks or months; >100 human subjects", "description": "Relatively high body water enrichments of ^2H2O (e.g., 1-10% of the total body water is labeled) may be achieved relatively inexpensively using the techniques of the invention. […] This finding in a large number of human subjects (>100 people) is contrary to previous concerns about vestibular toxicities at high doses of ^2H2O. One of the Applicants has discovered that as long as rapid changes in body water enrichment are prevented (e.g., by initial administration in small, divided doses), high body water enrichments of ^2H2O can be maintained with no toxicities. For example, the low expense of commercially available ^2H2O allows long-term maintenance of enrichments in the 1-5% range at relatively low expense (e.g., calculations reveal a lower cost for 2 months labeling at 2% ^2H2O enrichment, and thus 7-8% enrichment in the alanine precursor pool, than for 12 hours labeling of ^2H-leucine at 10% free leucine enrichment, and thus 7-8% enrichment in leucine precursor pool for that period)."}},
  "data": [
    {"compound": "Nc1ncnc2c1ncn2[C@@H]1O[C@@H]2COP(O)(=S)O[C@H]2[C@H]1O", "note": "(single isomer, unassigned) [Rp-cAMP, adenosine-3′,5′-monophosphorothioate, Rp-isomer]", "values": [
      {"measurement": "glutamate-induced increase in total hippocampal protein synthesis", "setting": "[1]", "value": "blocked"},
      {"measurement": "glutamate-stimulated label incorporation into new MAP2/STOP-MTs", "setting": "[2]; 0.48 nmol glutamate plus 0.66 pmol Rp-cAMP ICVC, 8 and 24 hours", "value": "blocked"},
      {"measurement": "glutamate-stimulated label incorporation into CS MTs", "setting": "[2]; 0.48 nmol glutamate plus 0.66 pmol Rp-cAMP ICVC, 24 hours", "value": "blocked"},
      {"measurement": "fractional synthesis of tubulin dimers and microtubules", "setting": "[2]; glutamate plus 0.66 pmol Rp-cAMP, 24 hours", "value": "significantly blocked"}
    ]},
    {"compound": "[2H]O[2H]", "note": "[^2H2O]", "values": [
      {"measurement": "toxicity", "setting": "[3]", "value": "without any evidence of toxicity"}
    ]}
  ]
}
